Laboratory results reported in US11975051B1, “Therapeutic peptides and uses thereof” (priority 2022, dated 2024).
Like-named read-outs stand apart in the source and are kept apart here. Where no end group is shown, it is not given here. [ ]: non-standard residue; d: D form.

Columns and labels:
ALS patient-derived ASCs = assay: Stressed ALS patient-derived ASCs treated with peptides, SeaHorse analytics (Example 6); assay type: cell-based, human; conditions: tested at 0.5 and/or 5 mM (TP-5 0.01-100 mM), DMSO/H2O
Excerpt: ALS patient-derived ASCs showing hypermetabolism and lipid sequestration were stressed and treated with peptides (shown below, column 2) and effect of the peptide measured with SeaHorse analytics.

TNFα = TNFα lowering in ConA stimulated peripheral blood mononuclear cells; assay type: cell-based, human; conditions: 5 μg/mL ConA 72 hours, N=3
Excerpt: (§1) The influence of proinflammatory cytokines on the immunoregulatory function of immune cells from healthy donors may be assessed using mitogen-stimulated PBMC responses, which can be measured by determining the effect of test compounds on cytokine levels after stimulation by Concanavilin A (“ConA”). See Arneth, CURRENT PROTOCOLS IN CYTOMETRY 6.28 supplement 51 (2010); A. Erhardt et al., Immunology and Liver Disease Karger (2010); W. Ge et al., INTERNATIONAL IMMUNOPHARMACOLOGY 85 (2020); S. Malchow et al., BICHIMICA ET BIOPHYSICA ACTA 1812:290-301 (2011); A. Thomazelli et al., IMMUNOPHARMACOLOGY AND IMMUNOTOXICOLOGY, 40:5:387-392 (2018); N. Umeda et al., LEUKOCYTE BIOLOGY 791-801 (2019); H. Wang et al., WORLD JOURNAL OF GASTROENTEROLOGY 119-125 (2012).
(§2) Normal human PBMCs were stimulated with 5 μg/mL ConA for 72 hours followed by treatment with test compound, each of which are set forth in Table 6, at either 4.15 μM or 41.5 μM. Data represents mean of either TNFα or interleukin IL-6 lowering after ConA stimulation±SD. 2-way ANOVA with Dunnet's multiple comparison test; * p<0.05 (represented as +); ** p<0.01 (represented as ++); *** p<0.001 **** (represented as +++); p<0.0001 (represented as ++++); N=3 replicates. Both TNFα and IL-6 are inflammatory cytokines for which the lowering would be expected to provide therapeutic benefit for a variety of diseases. For example, TNFα is implicated in the inflammation associated with neurodegenerative and inflammatory disorders (see, e.g., G. D. Kalliolias et al., TNF biology, pathogenic mechanisms and emerging therapeutic strategies, 12(1) NATURE REVIEWS RHEUMATOLOGY 49-62 (2016)) as is […] (see, e.g., S. Kaur et al., A panoramic review of IL-6: Structure, pathophysiological roles and inhibitors, 28(5) BIOORG. MED. CHEM. 115327 (2020)).

IL-6 = IL-6 lowering in ConA stimulated peripheral blood mononuclear cells; assay type: cell-based, human; conditions: 5 μg/mL ConA 72 hours, N=3
Excerpt: as §1, §2

ALS patients = conditions: cited from earlier work
patients with ALS = conditions: cited from earlier work
[1] = Pharmacokinetics in mice dosed IV, SC and PO; assay type: in vivo, mouse; conditions: mouse, in vivo, mice
renal dialysis patients = conditions: cited from earlier work
[2] = in vivo; cited from earlier work
[3] = Mouse (liver) microsomal stability; assay type: in vitro ADME; conditions: mouse, liver microsomes
[4] = also when given with other drugs; cited from earlier work
Mouse plasma stability = assay type: in vitro ADME; conditions: read-out: Mouse Plasma Stability t½
SOD1^G93A model = assay: Thymalfasin in the SOD1^G93A ALS mouse model; assay type: in vivo
Excerpt: (§3) In mice, thymalfasin is metabolized to the active molecule thymopentin. Because mice process the pro-molecule thymalfasin into thymopentin as do humans, thymalfasin may illuminate the effects of thymopentin by increasing target engagement afforded by the pro-molecule.

TDP43 model = assay: Thymalfasin in the TDP43 (Prp-TDP43^A315T) ALS mouse model; assay type: in vivo
Excerpt: as §3

| Molecule | Conc. with positive effect (ALS patient-derived ASCs) | TNFα lowering after ConA stimulation (significance) (TNFα; 4.15 μM test compound) | TNFα lowering after ConA stimulation (significance) (TNFα; 41.5 μM test compound) | IL-6 lowering after ConA stimulation (significance) (IL-6; 4.15 μM test compound) | IL-6 lowering after ConA stimulation (significance) (IL-6; 41.5 μM test compound) | further results |
| --- | --- | --- | --- | --- | --- | --- |
| 1 (RKDVY) [Compound 1] | none | +++ (*** p<0.001 **** (represented as +++)) | ++++ (p<0.0001 (represented as ++++)) | + (* p<0.05 (represented as +)) | +++ (*** p<0.001 **** (represented as +++)) |  |
| 6 (Ac-[dY][dV][dD][dK][dR]-NHMe) [Compound 6] | 5 mM | ++++ (p<0.0001 (represented as ++++)) | ++++ (p<0.0001 (represented as ++++)) | + (* p<0.05 (represented as +)) | ++++ (p<0.0001 (represented as ++++)) |  |
| 8 (Ac-[dY][dV][dD][dK][dR]-NH2) [Compound 8] | 5 mM |  |  |  |  |  |
| CC1=NN(c2ccccc2)C(=O)C1 [Edavarone] |  |  |  |  |  | slowing of the progression of disease (ALS patients): 33% |
| Nc1nc2ccc(OC(F)(F)F)cc2s1 [Riluzole] |  |  |  |  |  | extension of life (patients with ALS): several months |
| Ac-Arg-Lys-Asp-Val-Tyr-NH2 (Ac-RKDVY-NH2) [Compound 3] | none | + (* p<0.05 (represented as +)) | ++ (** p<0.01 (represented as ++)) |  | +++ (*** p<0.001 **** (represented as +++)) |  |
| Ac-Arg-Lys-Asp-Val-Tyr-NHMe (Ac-RKDVY-NHMe; SMILES CNC(=O)[C@H](Cc1ccc(O)cc1)NC(=O)[C@@H](NC(=O)[C@H](CC(=O)O)NC(=O)[C@H](CCCCN)NC(=O)[C@H](CCCNC(=N)N)NC(C)=O)C(C)C) [Compound 5] | none |  | + (* p<0.05 (represented as +)) | + (* p<0.05 (represented as +)) | ++ (** p<0.01 (represented as ++)) |  |
| Arg-Lys-Asp-Val-Tyr-NH2 (RKDVY-NH2) [Compound 2] | none | ++ (** p<0.01 (represented as ++)) | ++ (** p<0.01 (represented as ++)) | ++ (** p<0.01 (represented as ++)) | +++ (*** p<0.001 **** (represented as +++)) |  |
| Arg-Lys-Asp-Val-Tyr-NHMe (RKDVY-NHMe) [Compound 4] | none | ++ (** p<0.01 (represented as ++)) | +++ (*** p<0.001 **** (represented as +++)) | + (* p<0.05 (represented as +)) | ++ (** p<0.01 (represented as ++)) |  |
| D-Tyr-D-Val-D-Asp-D-Lys-D-Arg-NH2 ([dY][dV][dD][dK][dR]-NH2) [Compound 7] | 0.5 mM |  |  |  |  |  |
| RKDVY [TP-5, Arg-Lys-Asp-Val-Tyr, reference compound] |  |  |  |  |  | half-life ([1]; IV, read-out: IV t½, mice): 5.58 min; bioavailability ([1]; PO, read-out: PO % F, mice): 36%; AUC(0-inf) ([1]; PO, read-out: PO AUCinf): 1270 ng·h/mL; Cmax ([1]; PO, read-out: PO Cmax): 1370 ng/mL; half-life ([1]; PO, read-out: PO t½, mice): 7.72 min; bioavailability ([1]; SC, read-out: SC % F, mice): 39%; AUC(0-inf) ([1]; SC, read-out: SC AUCinf): 126 ng·h/mL; Cmax ([1]; SC, read-out: SC Cmax): 133 ng/mL; half-life ([1]; SC, read-out: SC t½, mice): 8.92 min; IL-6, IL-8, TNF and CRP (renal dialysis patients): reduced; superoxide dismutase (SOD), state of oxidative stress (renal dialysis patients): increasing; half-life of exogenous thymopentin [2]: seconds; half-life ([3]; mouse liver microsomes, read-out: stability in mouse liver microsomes, half-life): 23.1 min; half-life ([3]; mouse microsomes, read-out: Mouse Microsomal Stability t½): > 60 min; safety / tolerability [4]: well tolerated; half-life (Mouse plasma stability): 23.1 min |
| thymalfasin: thymosin α (Tα1), 28 amino acids, commercially available as ZADAXIN; pro-molecule metabolized to thymopentin (Ac-SDAAVDTSSEITTKDLKEKKEVVEEAEN; UniProt P06454 2-29, looked up) |  |  |  |  |  | ubiquitin in brain tissue and spinal cord on histopathology (SOD1^G93A model): statistically-significant reduction; growth and strength (based on wire hang tests) (TDP43 model; TDP-43 mouse model): improvement; disease phenotype (TDP43 model; TDP-43 mouse model, one cohort): prevented in one cohort; Iba1 and brain GFAP, measures of inflammation (TDP43 model; treated mice): Statistically-significant reduction |
